Data from patent US5495032A, “Process for producing 7-(substituted)-8-(substituted-9-[(substituted glycyl)amido]-6-demethyl-6-deoxytetracyclines” (priority 1994, dated 1996).
Structures can show the parent of a compound that is named as a salt. Where two headings read alike, the source gives them in different places.

Assays:
Assay type in all cases: cell-based
S. mariescens FPOR 8733 = test: MIC, agar dilution method; conditions: 18 hours at 35° C.
[1] = system: S. aureus UBMS 88-7 Tet K; test: microbe, parasite or virus in culture; conditions: Staphylococcus aureus, UBMS887TETK, 18 h, 18 hours at 35° C.
S. aureus ROSE (MP) = test: MIC, agar dilution method; conditions: Staphylococcus aureus, 18 h, 18 hours at 35° C.
[2] = system: Ps. acruginosa ATCC 27853; test: MIC, agar dilution method; conditions: Ps. acruginosa ATCC 27853; 18 hours at 35° C.; read-out: MIC
E. faecalis ATCC 29212 = test: MIC, agar dilution method; conditions: Enterococcus faecalis, ATCC29212, 18 hours at 35° C., read-out: MIC
[3] = system: X. maltophilia NEMC 87210; test: MIC, agar dilution method; conditions: Stenotrophomonas maltophilia
E. coli UBMS 88-1 Tet B = test: microbe, parasite or virus in culture; conditions: Escherichia coli, UBMS881TETB, 18 h, 18 hours at 35° C.
E. coli PRP1 Tet A = test: microbe, parasite or virus in culture; conditions: Escherichia coli, PRP1TETA, 18 h, 18 hours at 35° C.
[4] = system: S. aureus UBMS 90-2 Tet M; test: microbe, parasite or virus in culture; conditions: Staphylococcus aureus, UBMS902TETM, 18 h, 18 hours at 35° C.
E. coli J2175 = test: MIC, agar dilution method; conditions: Escherichia coli, 18 hours at 35° C., read-out: MIC
S. aureus IVES 1 983 = test: MIC, agar dilution method; conditions: Staphylococcus aureus
[5] = system: S. aureus UBMS 90-1 Tet M; test: microbe, parasite or virus in culture; conditions: Staphylococcus aureus, UBMS901TETM, 18 h, 18 hours at 35° C.
[6] = system: S. hemolyticus AVHAH 88-3; test: MIC, agar dilution method; conditions: Streptococcus pyogenes
[7] = system: E. coli UBMS 89-2 Tet sens; test: MIC, agar dilution method; conditions: Escherichia coli, UBMS892TETSENS, 18 h, 18 hours at 35° C., read-out: MIC
E. coli #311 (MP) = test: MIC, agar dilution method; conditions: Escherichia coli, 18 hours at 35° C., read-out: MIC
S. aureus UBMS 90-3 = test: MIC, agar dilution method; conditions: Staphylococcus aureus, UBMS903, 18 h
[8] = system: E. coli MC 4100 Tet sens.; test: MIC, agar dilution method; conditions: Escherichia coli, 18 hours at 35° C., read-out: MIC
E. coli J3272 Tet D = test: microbe, parasite or virus in culture; conditions: Escherichia coli, J3272TETD, 18 h
[9] = system: E. coli MC 4100 TNIOC Tet B; test: microbe, parasite or virus in culture; conditions: Escherichia coli, 18 h, 18 hours at 35° C.
S. aureus SMITH (MP) = test: MIC, agar dilution method; conditions: Staphylococcus aureus, 18 h, 18 hours at 35° C.
E. coli UBMS 90-4 Tet M = test: microbe, parasite or virus in culture; conditions: Escherichia coli, UBMS904TETM, 18 h, 18 hours at 35° C.
S. aureus UBMS 88-4 = test: MIC, agar dilution method; conditions: Staphylococcus aureus, UBMS884, 18 hours at 35° C., read-out: MIC
[10] = system: S. aureus UBMS 88-5 Tet M; test: microbe, parasite or virus in culture; conditions: Staphylococcus aureus, UBMS885TETM, 18 h
E. coli UBMS 89-1 Tet M = test: microbe, parasite or virus in culture; conditions: Escherichia coli, UBMS891TETM, 18 h, 18 hours at 35° C.
E. coli ATCC 25922 = test: MIC, agar dilution method; conditions: Escherichia coli, ATCC25922, 18 hours at 35° C., read-out: MIC
E. coli UBMS 90-5 sens = test: MIC, agar dilution method; conditions: Escherichia coli, UBMS905SENS, 18 hours at 35° C., read-out: MIC
S. aureus NEMC 8769 = test: MIC, agar dilution method; conditions: Staphylococcus aureus, NEMC8769, 18 h
E. coli BAJ9003 IMP MUT = test: microbe, parasite or virus in culture; conditions: Escherichia coli, BAJ9003IMPMUT, 18 h, 18 hours at 35° C.
S. aureus ATCC 29213 = test: MIC, agar dilution method; conditions: Staphylococcus aureus, ATCC29213, 18 h, 18 hours at 35° C.
Enterococcus 12201 = test: MIC, agar dilution method; conditions: Enterococcus, 12201, 18 h, 18 hours at 35° C.
S. aureus IVES 2943 = test: MIC, agar dilution method; conditions: Staphylococcus aureus
E. coli J3272 Tet C = test: microbe, parasite or virus in culture; conditions: Escherichia coli, J3272TETC, 18 h

SMILES	MIC [1]	MIC (S. aureus ROSE (MP))	MIC [2]	MIC (E. faecalis ATCC 29212)	MIC (E. coli UBMS 88-1 Tet B)	MIC (E. coli PRP1 Tet A)	MIC [4]	MIC (E. coli J2175)	MIC [5]	MIC [7]	MIC (E. coli #311 (MP))	MIC (S. aureus UBMS 90-3)	MIC [8]	MIC (E. coli J3272 Tet D)	MIC [9]	MIC (S. aureus SMITH (MP))	MIC (E. coli UBMS 90-4 Tet M)	MIC (S. aureus UBMS 88-4)	MIC [10]	MIC (E. coli UBMS 89-1 Tet M)	also measured
CN(C)[C@@H]1C(O)=C(C(N)=O)C(=O)[C@@]2(O)C(O)=C3C(=O)c4c(cc(Cl)c(NC(=O)CN5CCCC5)c4O)CC3CC12 (stereo partly drawn) [E, [7S-(7α,10aα)]-N-[9-(Aminocarbonyl)-3-chloro-7-(dimethylamino)-5,5a,6,6a,7, 10,10a,12-octahydro-1,2,10a,11-tetrahydroxy-10,12-dioxo-2-naphthacenyl]-1-pyrrolidineacetamide dihydrochloride]	2 µg/mL	8 µg/mL	32 µg/mL	0.12 µg/mL	1 µg/mL	2 µg/mL	0.25 µg/mL	1 µg/mL	0.25 µg/mL	1 µg/mL	0.25 µg/mL	0.12 µg/mL	0.25 µg/mL	0.25 µg/mL	1 µg/mL	0.25 µg/mL	1 µg/mL	0.25 µg/mL	0.25 µg/mL	0.25 µg/mL	MIC (S. mariescens FPOR 8733; 18 h): 8 µg/mL; MIC ([3]; NEMC87210, 18 h, 18 hours at 35° C.): 1 µg/mL; MIC (S. aureus IVES 1 983; IVES1983, S. aureus IVES 1 983, 18 hours at 35° C., read-out: MIC): 4 µg/mL; MIC ([6]; AVHAH883, 18 h, 18 hours at 35° C.): 2 µg/mL; MIC (E. coli ATCC 25922): 0.25 µg/mL; MIC (E. coli UBMS 90-5 sens): 1 µg/mL; MIC (S. aureus NEMC 8769): 0.25 µg/mL; MIC (E. coli BAJ9003 IMP MUT): 0.12 µg/mL; MIC (S. aureus ATCC 29213): 0.25 µg/mL; MIC (Enterococcus 12201): 0.25 µg/mL; MIC (S. aureus IVES 2943; IVES2943, S. aureus IVES 2943, 18 hours at 35° C., read-out: MIC): 4 µg/mL; MIC (E. coli J3272 Tet C): 1 µg/mL
CCCNCC(=O)Nc1c(Cl)cc2c(c1O)C(=O)C1=C(O)[C@]3(O)C(=O)C(C(N)=O)=C(O)[C@@H](N(C)C)C3CC1C2 (stereo partly drawn) [F, [4S-(4α,12aα)]-8-Chloro-4-(dimethylamino)-1,4,4a,5,5a,6,11,12a-octahydro-3,10,12,12a-tetrahydroxy-1,11-dioxo-9-[[(propylamino)acetyl]amino]-2-naphthacenecarboxamide dihydrochloride]	8 µg/mL	16 µg/mL	32 µg/mL	0.12 µg/mL	0.5 µg/mL	4 µg/mL	0.25 µg/mL	1 µg/mL	0.5 µg/mL	1 µg/mL	0.5 µg/mL	0.5 µg/mL	0.12 µg/mL	0.25 µg/mL	0.5 µg/mL	0.25 µg/mL	0.5 µg/mL	0.25 µg/mL	0.5 µg/mL	0.5 µg/mL	MIC (S. mariescens FPOR 8733; read-out: MIC): 8 µg/mL; MIC ([3]; NEMC87210, 18 hours at 35° C., read-out: MIC): 2 µg/mL; MIC (S. aureus IVES 1 983; IVES1983, 18 h): 8 µg/mL; MIC ([6]; AVHAH883, 18 hours at 35° C., read-out: MIC): 4 µg/mL; MIC (E. coli ATCC 25922): 0.5 µg/mL; MIC (E. coli UBMS 90-5 sens): 0.5 µg/mL; MIC (S. aureus NEMC 8769): 0.25 µg/mL; MIC (E. coli BAJ9003 IMP MUT): 0.12 µg/mL; MIC (S. aureus ATCC 29213): 0.25 µg/mL; MIC (Enterococcus 12201): 0.25 µg/mL; MIC (S. aureus IVES 2943; IVES2943, 18 h): 16 µg/mL; MIC (E. coli J3272 Tet C): 1 µg/mL
